Laboratory results: ChEMBL document CHEMBL4052791, “GNE-886: A Potent and Selective Inhibitor of the Cat Eye Syndrome Chromosome Region Candidate 2 Bromodomain (CECR2)” (ACS Med Chem Lett, 2017)
≈ marks a conversion by molar mass, not a printed value.

Biological target: T1, Transcription initiation factor TFIID subunit 1 (Homo sapiens, UniProt P21675)
Assay: Binding affinity to human DNA-tagged TAF1 bromodomain 2 (1521 to 1656 residues) expressed in bacterial expression system by BROMOscan assay
Conditions: not given

T1 sequence (P21675 whole entry, the tested form may be a part): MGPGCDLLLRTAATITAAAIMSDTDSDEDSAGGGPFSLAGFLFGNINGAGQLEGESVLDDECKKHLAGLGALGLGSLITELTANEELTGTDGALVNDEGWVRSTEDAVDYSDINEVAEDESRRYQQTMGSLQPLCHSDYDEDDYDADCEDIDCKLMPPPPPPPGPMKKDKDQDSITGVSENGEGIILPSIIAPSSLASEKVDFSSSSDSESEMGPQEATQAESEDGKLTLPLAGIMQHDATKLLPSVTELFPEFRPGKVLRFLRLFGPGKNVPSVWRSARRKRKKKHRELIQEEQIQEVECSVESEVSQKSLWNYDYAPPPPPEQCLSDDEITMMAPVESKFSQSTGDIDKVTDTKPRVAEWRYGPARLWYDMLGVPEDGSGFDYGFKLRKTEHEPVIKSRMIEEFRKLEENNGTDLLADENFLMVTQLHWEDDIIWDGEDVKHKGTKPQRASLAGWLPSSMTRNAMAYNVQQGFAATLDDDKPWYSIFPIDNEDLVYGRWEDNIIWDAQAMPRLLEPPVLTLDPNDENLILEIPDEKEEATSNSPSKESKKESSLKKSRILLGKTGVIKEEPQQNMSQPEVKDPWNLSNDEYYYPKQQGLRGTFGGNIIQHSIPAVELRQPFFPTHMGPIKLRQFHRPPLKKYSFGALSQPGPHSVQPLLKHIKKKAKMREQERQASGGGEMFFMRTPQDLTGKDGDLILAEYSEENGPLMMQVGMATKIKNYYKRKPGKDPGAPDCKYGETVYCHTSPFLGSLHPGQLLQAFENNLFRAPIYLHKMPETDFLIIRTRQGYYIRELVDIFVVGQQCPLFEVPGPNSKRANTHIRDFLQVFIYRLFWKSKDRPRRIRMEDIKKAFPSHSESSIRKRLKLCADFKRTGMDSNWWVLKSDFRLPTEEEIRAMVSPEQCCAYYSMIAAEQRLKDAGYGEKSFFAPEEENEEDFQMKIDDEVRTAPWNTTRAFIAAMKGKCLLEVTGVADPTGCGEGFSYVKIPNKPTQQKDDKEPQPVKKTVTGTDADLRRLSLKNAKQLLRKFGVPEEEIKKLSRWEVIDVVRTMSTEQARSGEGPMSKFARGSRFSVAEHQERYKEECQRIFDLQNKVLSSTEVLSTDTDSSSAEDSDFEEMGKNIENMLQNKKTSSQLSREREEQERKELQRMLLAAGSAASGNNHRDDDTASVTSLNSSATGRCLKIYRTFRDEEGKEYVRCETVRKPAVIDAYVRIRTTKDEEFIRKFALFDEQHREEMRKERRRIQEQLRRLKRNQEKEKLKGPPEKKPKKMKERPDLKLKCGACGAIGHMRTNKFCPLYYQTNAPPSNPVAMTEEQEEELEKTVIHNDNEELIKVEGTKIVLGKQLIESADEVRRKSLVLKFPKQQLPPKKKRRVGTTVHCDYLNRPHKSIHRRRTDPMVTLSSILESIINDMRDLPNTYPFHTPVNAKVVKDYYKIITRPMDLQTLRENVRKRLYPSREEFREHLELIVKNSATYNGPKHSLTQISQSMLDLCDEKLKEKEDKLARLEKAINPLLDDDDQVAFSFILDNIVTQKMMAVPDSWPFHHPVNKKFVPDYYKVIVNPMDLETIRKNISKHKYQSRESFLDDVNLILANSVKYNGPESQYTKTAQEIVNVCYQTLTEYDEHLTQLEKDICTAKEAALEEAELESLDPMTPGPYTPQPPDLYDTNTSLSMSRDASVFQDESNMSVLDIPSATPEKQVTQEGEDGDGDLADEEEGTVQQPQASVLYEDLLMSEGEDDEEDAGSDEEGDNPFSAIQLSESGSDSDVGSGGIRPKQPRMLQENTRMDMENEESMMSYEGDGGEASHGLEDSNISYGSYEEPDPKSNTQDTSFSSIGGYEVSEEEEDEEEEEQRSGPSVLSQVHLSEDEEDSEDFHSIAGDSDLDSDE

SMILES	Kd
C=CCn1cc(C(=O)N(C)C2CCN(c3cc(-c4cccc(OC)c4)ncn3)CC2)c2cc[nH]c2c1=O	0.62 µM

Biological target: T2, Chromatin remodeling regulator CECR2 (Homo sapiens, UniProt Q9BXF3)
T2 sequence (Q9BXF3 whole entry): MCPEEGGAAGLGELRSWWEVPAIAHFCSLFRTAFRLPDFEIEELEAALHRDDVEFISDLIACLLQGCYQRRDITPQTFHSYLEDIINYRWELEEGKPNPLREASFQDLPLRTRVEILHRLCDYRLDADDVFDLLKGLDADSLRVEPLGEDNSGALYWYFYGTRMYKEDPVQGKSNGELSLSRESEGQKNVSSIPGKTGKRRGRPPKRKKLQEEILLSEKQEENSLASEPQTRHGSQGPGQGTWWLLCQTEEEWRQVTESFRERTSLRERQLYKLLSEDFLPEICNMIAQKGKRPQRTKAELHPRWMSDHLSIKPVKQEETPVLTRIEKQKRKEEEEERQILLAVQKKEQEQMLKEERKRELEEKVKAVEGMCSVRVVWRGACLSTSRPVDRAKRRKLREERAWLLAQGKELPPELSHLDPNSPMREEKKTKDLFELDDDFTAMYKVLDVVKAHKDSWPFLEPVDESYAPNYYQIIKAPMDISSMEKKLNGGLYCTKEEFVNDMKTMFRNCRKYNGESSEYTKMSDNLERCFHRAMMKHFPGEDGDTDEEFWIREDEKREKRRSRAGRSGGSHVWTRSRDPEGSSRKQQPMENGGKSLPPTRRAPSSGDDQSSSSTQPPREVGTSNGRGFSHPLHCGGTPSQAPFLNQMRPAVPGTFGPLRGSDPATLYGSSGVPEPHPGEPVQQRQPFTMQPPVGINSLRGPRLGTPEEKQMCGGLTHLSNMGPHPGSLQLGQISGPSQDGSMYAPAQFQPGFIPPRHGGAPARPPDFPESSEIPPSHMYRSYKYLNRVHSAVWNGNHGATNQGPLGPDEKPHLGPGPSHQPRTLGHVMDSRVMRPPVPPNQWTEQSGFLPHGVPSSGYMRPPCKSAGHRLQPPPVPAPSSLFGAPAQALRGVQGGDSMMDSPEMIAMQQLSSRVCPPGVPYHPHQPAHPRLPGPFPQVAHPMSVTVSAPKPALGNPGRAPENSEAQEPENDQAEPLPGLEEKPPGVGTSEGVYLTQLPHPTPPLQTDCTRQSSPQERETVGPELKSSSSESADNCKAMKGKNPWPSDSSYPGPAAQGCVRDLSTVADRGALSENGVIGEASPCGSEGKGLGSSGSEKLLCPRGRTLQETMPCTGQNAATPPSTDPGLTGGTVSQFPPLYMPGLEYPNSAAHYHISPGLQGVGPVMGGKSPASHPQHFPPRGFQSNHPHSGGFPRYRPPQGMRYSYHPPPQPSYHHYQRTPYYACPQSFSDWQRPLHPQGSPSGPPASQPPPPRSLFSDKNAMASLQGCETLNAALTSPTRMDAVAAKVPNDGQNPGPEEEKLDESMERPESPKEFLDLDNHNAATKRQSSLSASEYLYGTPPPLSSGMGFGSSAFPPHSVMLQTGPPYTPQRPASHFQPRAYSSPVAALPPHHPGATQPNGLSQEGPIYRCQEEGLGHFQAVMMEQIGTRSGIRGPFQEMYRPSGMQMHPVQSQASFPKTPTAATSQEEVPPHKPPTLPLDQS
Assay: Inhibition of recombinant human N-terminal His6-FLAG-tagged CECR2 expressed in Rosetta2 (DE3) pLysS cells after 60 mins by TR-FRET assay
Type: cell-based
Conditions: not given

IC50	SMILES
0.046 µM	C=CCn1cc(C(=O)N(C)C2CCN(c3cc(-c4ccccc4C)ncn3)CC2)c2cc[nH]c2c1=O
0.19 µM	C=CCn1cc(C(=O)N(C)C2CCN([C@@H](C)c3ccccc3)CC2)c2cc(C)[nH]c2c1=O
0.055 µM	C=CCn1cc(C(=O)N(C)C2CCN(c3cc(C(C)(C)C)ncn3)CC2)c2cc[nH]c2c1=O
0.5 µM	C=CCn1cc(C(=O)N(C)C2CCN(C(C)c3ccccc3)CC2)c2cc[nH]c2c1=O (racemic)
0.059 µM	C=CCn1cc(C(=O)N(C)C2CCN(c3cc(-n4cccn4)ncn3)CC2)c2cc[nH]c2c1=O
0.33 µM	CC(c1ccccc1)N1CCC(N(C)C(=O)c2cn(C)c(=O)c3[nH]ccc23)CC1 (racemic)
0.2 µM	C=CCn1cc(C(=O)N(C)C2CCN([C@H](C)c3ccccc3)CC2)c2cc(C)[nH]c2c1=O
0.5 µM	CC(C)N1CCC(N(C)C(=O)c2cn(C)c(=O)c3[nH]ccc23)CC1
0.2 µM	C=CCn1cc(C(=O)N(C)C2CCN(c3cc(C(F)(F)F)ncn3)CC2)c2cc[nH]c2c1=O

SMILES	IC50
C=CCn1cc(C(=O)N(C)C2CCN(c3cc(-c4cccc(OC)c4)ncn3)CC2)c2cc[nH]c2c1=O	0.016 µM

Biological target: Transcription initiation factor TFIID subunit 1-like (Homo sapiens, UniProt Q8IZX4)
Assay: Binding affinity to human DNA-tagged TAF1L bromodomain 2 (1523 to 1654 residues) expressed in bacterial expression system by BROMOscan assay
Conditions: not given

SMILES	Kd
C=CCn1cc(C(=O)N(C)C2CCN(c3cc(-c4cccc(OC)c4)ncn3)CC2)c2cc[nH]c2c1=O	2.4 µM

Biological target: T3, Bromodomain-containing protein 4 (Homo sapiens, UniProt O60885)
Assay: Inhibition of recombinant human N-terminal His6-FLAG-tagged BRD4 bromodomain 2 (unknown origin) expressed in Rosetta2 (DE3) pLysS cells after 60 mins by TR-FRET assay
Type: cell-based
Conditions: not given

IC50	SMILES
> 20 µM	C=CCn1cc(C(=O)N(C)C2CCN([C@@H](C)c3ccccc3)CC2)c2cc(C)[nH]c2c1=O
> 20 µM	C=CCn1cc(C(=O)N(C)C2CCN(C(C)c3ccccc3)CC2)c2cc[nH]c2c1=O (racemic)
6.1 µM	CC(c1ccccc1)N1CCC(N(C)C(=O)c2cn(C)c(=O)c3[nH]ccc23)CC1 (racemic)
> 20 µM	C=CCn1cc(C(=O)N(C)C2CCN([C@H](C)c3ccccc3)CC2)c2cc(C)[nH]c2c1=O
19.2 µM	CC(C)N1CCC(N(C)C(=O)c2cn(C)c(=O)c3[nH]ccc23)CC1

Biological target: T1, Transcription initiation factor TFIID subunit 1
Assay: Inhibition of recombinant human N-terminal His6-FLAG-tagged TAF1 bromodomain 2 (unknown origin) expressed in Rosetta2 (DE3) pLysS cells after 60 mins by TR-FRET assay
Type: cell-based
Conditions: not given

IC50	SMILES
2.4 µM	C=CCn1cc(C(=O)N(C)C2CCN(c3cc(-c4ccccc4C)ncn3)CC2)c2cc[nH]c2c1=O
11.9 µM	C=CCn1cc(C(=O)N(C)C2CCN([C@@H](C)c3ccccc3)CC2)c2cc(C)[nH]c2c1=O
2.8 µM	C=CCn1cc(C(=O)N(C)C2CCN(c3cc(C(C)(C)C)ncn3)CC2)c2cc[nH]c2c1=O
16.1 µM	C=CCn1cc(C(=O)N(C)C2CCN(C(C)c3ccccc3)CC2)c2cc[nH]c2c1=O (racemic)
3.4 µM	C=CCn1cc(C(=O)N(C)C2CCN(c3cc(-n4cccn4)ncn3)CC2)c2cc[nH]c2c1=O
3.6 µM	CC(c1ccccc1)N1CCC(N(C)C(=O)c2cn(C)c(=O)c3[nH]ccc23)CC1 (racemic)
16.5 µM	C=CCn1cc(C(=O)N(C)C2CCN([C@H](C)c3ccccc3)CC2)c2cc(C)[nH]c2c1=O
8.4 µM	CC(C)N1CCC(N(C)C(=O)c2cn(C)c(=O)c3[nH]ccc23)CC1
3.4 µM	C=CCn1cc(C(=O)N(C)C2CCN(c3cc(C(F)(F)F)ncn3)CC2)c2cc[nH]c2c1=O

SMILES	IC50
C=CCn1cc(C(=O)N(C)C2CCN(c3cc(-c4cccc(OC)c4)ncn3)CC2)c2cc[nH]c2c1=O	1.4 µM

Biological target: T4, Bromodomain-containing protein 9 (Homo sapiens, UniProt Q9H8M2)
T4 sequence (Q9H8M2 whole entry): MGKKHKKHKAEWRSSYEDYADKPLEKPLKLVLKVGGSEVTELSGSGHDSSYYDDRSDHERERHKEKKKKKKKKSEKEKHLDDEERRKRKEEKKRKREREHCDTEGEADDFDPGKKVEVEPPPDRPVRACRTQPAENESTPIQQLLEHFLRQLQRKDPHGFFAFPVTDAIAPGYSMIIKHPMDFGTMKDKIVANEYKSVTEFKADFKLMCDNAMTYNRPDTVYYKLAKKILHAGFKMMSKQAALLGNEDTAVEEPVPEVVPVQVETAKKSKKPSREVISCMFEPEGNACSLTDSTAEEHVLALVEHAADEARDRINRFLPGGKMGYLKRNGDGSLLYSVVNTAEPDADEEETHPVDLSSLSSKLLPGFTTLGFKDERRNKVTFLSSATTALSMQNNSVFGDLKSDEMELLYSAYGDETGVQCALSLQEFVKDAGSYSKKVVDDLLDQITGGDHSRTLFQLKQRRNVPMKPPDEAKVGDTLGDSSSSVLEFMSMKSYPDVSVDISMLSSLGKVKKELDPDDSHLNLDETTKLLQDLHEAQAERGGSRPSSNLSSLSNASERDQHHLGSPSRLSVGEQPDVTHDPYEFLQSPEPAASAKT
Assay: Inhibition of recombinant human N-terminal His6-FLAG-tagged BRD9 (unknown origin) expressed in Rosetta2 (DE3) pLysS cells after 60 mins by TR-FRET assay
Type: cell-based
Conditions: not given

IC50	SMILES
1.7 µM	C=CCn1cc(C(=O)N(C)C2CCN(c3cc(-c4ccccc4C)ncn3)CC2)c2cc[nH]c2c1=O
4.4 µM	C=CCn1cc(C(=O)N(C)C2CCN([C@@H](C)c3ccccc3)CC2)c2cc(C)[nH]c2c1=O
5.7 µM	C=CCn1cc(C(=O)N(C)C2CCN(c3cc(C(C)(C)C)ncn3)CC2)c2cc[nH]c2c1=O
> 20 µM	C=CCn1cc(C(=O)N(C)C2CCN(C(C)c3ccccc3)CC2)c2cc[nH]c2c1=O (racemic)
6.9 µM	C=CCn1cc(C(=O)N(C)C2CCN(c3cc(-n4cccn4)ncn3)CC2)c2cc[nH]c2c1=O
11 µM	CC(c1ccccc1)N1CCC(N(C)C(=O)c2cn(C)c(=O)c3[nH]ccc23)CC1 (racemic)
3.5 µM	C=CCn1cc(C(=O)N(C)C2CCN([C@H](C)c3ccccc3)CC2)c2cc(C)[nH]c2c1=O
17.8 µM	CC(C)N1CCC(N(C)C(=O)c2cn(C)c(=O)c3[nH]ccc23)CC1
11.4 µM	C=CCn1cc(C(=O)N(C)C2CCN(c3cc(C(F)(F)F)ncn3)CC2)c2cc[nH]c2c1=O

SMILES	IC50
C=CCn1cc(C(=O)N(C)C2CCN(c3cc(-c4cccc(OC)c4)ncn3)CC2)c2cc[nH]c2c1=O	1.6 µM

Biological target: T5, Bromodomain-containing protein 7 (Homo sapiens, UniProt Q9NPI1)
T5 sequence (Q9NPI1 whole entry): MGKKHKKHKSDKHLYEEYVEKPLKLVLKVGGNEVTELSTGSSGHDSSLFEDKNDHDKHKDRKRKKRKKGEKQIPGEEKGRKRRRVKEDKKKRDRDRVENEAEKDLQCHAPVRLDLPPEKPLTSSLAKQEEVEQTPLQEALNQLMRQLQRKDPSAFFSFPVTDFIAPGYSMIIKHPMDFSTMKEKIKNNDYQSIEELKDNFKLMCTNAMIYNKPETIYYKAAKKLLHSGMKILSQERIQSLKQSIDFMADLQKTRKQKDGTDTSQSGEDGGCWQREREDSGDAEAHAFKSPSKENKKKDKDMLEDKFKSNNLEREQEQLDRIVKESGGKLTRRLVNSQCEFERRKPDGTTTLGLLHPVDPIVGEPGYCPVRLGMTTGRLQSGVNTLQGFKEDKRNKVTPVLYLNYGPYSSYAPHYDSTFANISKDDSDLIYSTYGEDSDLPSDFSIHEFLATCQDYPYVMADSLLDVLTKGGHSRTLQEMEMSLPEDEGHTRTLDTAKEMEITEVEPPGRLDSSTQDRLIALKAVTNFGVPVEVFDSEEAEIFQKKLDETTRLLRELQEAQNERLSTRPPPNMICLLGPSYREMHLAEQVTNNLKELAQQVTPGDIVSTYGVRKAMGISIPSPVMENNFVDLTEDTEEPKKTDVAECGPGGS
Assay: Binding affinity to human DNA-tagged BRD7 (125 to 254 residues) expressed in mammalian expression system by BROMOscan assay
Conditions: not given

SMILES	Kd
C=CCn1cc(C(=O)N(C)C2CCN(c3cc(-c4cccc(OC)c4)ncn3)CC2)c2cc[nH]c2c1=O	1.1 µM

Biological target: T3, Bromodomain-containing protein 4
Assay: Inhibition of recombinant human N-terminal His6-FLAG-tagged BRD4 bromodomain 1 expressed in Rosetta2 (DE3) pLysS cells after 60 mins by TR-FRET assay
Type: cell-based
Conditions: not given

IC50	SMILES
> 20 µM	C=CCn1cc(C(=O)N(C)C2CCN(c3cc(-c4ccccc4C)ncn3)CC2)c2cc[nH]c2c1=O
> 20 µM	C=CCn1cc(C(=O)N(C)C2CCN([C@@H](C)c3ccccc3)CC2)c2cc(C)[nH]c2c1=O
> 20 µM	C=CCn1cc(C(=O)N(C)C2CCN(c3cc(C(C)(C)C)ncn3)CC2)c2cc[nH]c2c1=O
> 20 µM	C=CCn1cc(C(=O)N(C)C2CCN(C(C)c3ccccc3)CC2)c2cc[nH]c2c1=O (racemic)
> 20 µM	C=CCn1cc(C(=O)N(C)C2CCN(c3cc(-n4cccn4)ncn3)CC2)c2cc[nH]c2c1=O
> 20 µM	CC(c1ccccc1)N1CCC(N(C)C(=O)c2cn(C)c(=O)c3[nH]ccc23)CC1 (racemic)
> 20 µM	C=CCn1cc(C(=O)N(C)C2CCN([C@H](C)c3ccccc3)CC2)c2cc(C)[nH]c2c1=O
> 20 µM	CC(C)N1CCC(N(C)C(=O)c2cn(C)c(=O)c3[nH]ccc23)CC1
> 20 µM	C=CCn1cc(C(=O)N(C)C2CCN(c3cc(C(F)(F)F)ncn3)CC2)c2cc[nH]c2c1=O

SMILES	IC50
C=CCn1cc(C(=O)N(C)C2CCN(c3cc(-c4cccc(OC)c4)ncn3)CC2)c2cc[nH]c2c1=O	> 20 µM

Biological target: T4, Bromodomain-containing protein 9
Assay: Binding affinity to human DNA-tagged BRD9 isoform 1 (130 to 259 residues) expressed in bacterial expression system by BROMOscan assay
Conditions: not given

SMILES	Kd
C=CCn1cc(C(=O)N(C)C2CCN(c3cc(-c4cccc(OC)c4)ncn3)CC2)c2cc[nH]c2c1=O	2 µM

Biological target: T2, Chromatin remodeling regulator CECR2
Assay: Binding affinity to ZsGreen fused-CECR2 bromodomain (M404 to H515 residues) (unknown origin) expressed in human U2OS-C433 cells co expressing (MDPKKKRKVDPKKRKVDPKKKRKV) assessed as induction of protein bromodomain localization from chromatin by measuring formation of large nuclear puncta by fluorescence based assay
Type: cell-based
Conditions: not given

SMILES	EC50
C=CCn1cc(C(=O)N(C)C2CCN(c3cc(-c4cccc(OC)c4)ncn3)CC2)c2cc[nH]c2c1=O	0.37 µM

Test system: not listed separately
Assay: Kinetic solubility of the compound
Type: physicochemical
Conditions: read-out: Kinetic_solubility

SMILES	solubility kinetic
C=CCn1cc(C(=O)N(C)C2CCN(c3cc(-c4cccc(OC)c4)ncn3)CC2)c2cc[nH]c2c1=O	122 µM (≈ 60.8 µg/mL)
